# Results reported in PubChem BioAssay (NCI).
#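 1) Cells in 96-well plates. 2) Compound, 48 h, 5 concentrations. 3) Linear interpolation between surrounding doses. 4) Unreached endpoint = highest concentration. TGI: concentration producing complete growth inhibition.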
# Experiments:
# Assay in all cases: NCI anticancer screen, dose series, 48 h
# CAKI-1 renal = system: CAKI-1 renal
# A549 NSCLC = system: A549 NSCLC
# SN12C renal = system: SN12C renal
# RXF 393 renal = system: RXF 393 renal
# CCRF-CEM leukemia = system: CCRF-CEM leukemia
# OVCAR-5 ovarian = system: OVCAR-5 ovarian
# UO-31 renal = system: UO-31 renal
# MOLT-4 leukemia = system: MOLT-4 leukemia
# A498 renal = system: A498 renal
# HOP-62 NSCLC = system: HOP-62 NSCLC
# KM20L2 colon = system: KM20L2 colon
# NCI/ADR-RES ovarian = system: NCI/ADR-RES ovarian
# SK-MEL-5 melanoma = system: SK-MEL-5 melanoma
# DMS 114 small cell lung = system: DMS 114 small cell lung
# U251 CNS = system: U251 CNS
# LXFL 529 NSCLC = system: LXFL 529 NSCLC
# COLO 205 colon = system: COLO 205 colon
# NCI-H522 lung = system: NCI-H522 lung
# SNB-78 CNS = system: SNB-78 CNS
# LOX IMVI melanoma = system: LOX IMVI melanoma
# UACC-257 melanoma = system: UACC-257 melanoma
# HL-60(TB) leukemia = system: HL-60(TB) leukemia
# M19-MEL melanoma = system: M19-MEL melanoma
# SF-295 CNS = system: SF-295 CNS
# SK-OV-3 ovarian = system: SK-OV-3 ovarian
# T-47D breast = system: T-47D breast
# ACHN renal = system: ACHN renal
# HCT-15 colon = system: HCT-15 colon
# DU-145 prostate = system: DU-145 prostate
# TK-10 renal = system: TK-10 renal
# SF-539 CNS = system: SF-539 CNS
# MDA-N = system: MDA-N
# HCT-116 colon = system: HCT-116 colon
# NCI-H226 lung = system: NCI-H226 lung
# M14 melanoma = system: M14 melanoma
# DMS 273 small cell lung = system: DMS 273 small cell lung
# OVCAR-4 ovarian = system: OVCAR-4 ovarian
# HS 578T breast = system: HS 578T breast
# HOP-92 NSCLC = system: HOP-92 NSCLC
# MDA-MB-231 breast = system: MDA-MB-231 breast
# SF-268 CNS = system: SF-268 CNS
# MALME-3M melanoma = system: MALME-3M melanoma
# 786-0 renal = system: 786-0 renal
# SK-MEL-2 melanoma = system: SK-MEL-2 melanoma
# MDA-MB-435 = system: MDA-MB-435
# XF 498 CNS = system: XF 498 CNS
# HT29 colon = system: HT29 colon
# HCC-2998 colon = system: HCC-2998 colon
# PC-3 prostate = system: PC-3 prostate
# IGROV1 ovarian = system: IGROV1 ovarian
# UACC-62 melanoma = system: UACC-62 melanoma
# OVCAR-8 ovarian = system: OVCAR-8 ovarian
# K-562 leukemia = system: K-562 leukemia
# SNB-75 CNS = system: SNB-75 CNS
# EKVX NSCLC = system: EKVX NSCLC
# SNB-19 CNS = system: SNB-19 CNS
# KM12 colon = system: KM12 colon
# NCI-H23 lung = system: NCI-H23 lung
# DLD-1 colon = system: DLD-1 colon
# SR leukemia = system: SR leukemia
# SK-MEL-28 melanoma = system: SK-MEL-28 melanoma
# OVCAR-3 ovarian = system: OVCAR-3 ovarian
# NCI-H460 lung = system: NCI-H460 lung
# BT-549 breast = system: BT-549 breast
# MCF7 breast = system: MCF7 breast
# RPMI-8226 leukemia = system: RPMI-8226 leukemia
# SW-620 colon = system: SW-620 colon
structure (smiles),measurement,setting,value
C[N+](C)(C)CC1CCc2ccccc2C1=O (stereo not drawn),TGI,CAKI-1 renal,9.31 µM
same,TGI,A549 NSCLC,52.3 µM
same,TGI,SN12C renal,16.3 µM
same,TGI,RXF 393 renal,29.6 µM
same,TGI,CCRF-CEM leukemia,> 37.9 µM
same,TGI,OVCAR-5 ovarian,29.7 µM
same,TGI,UO-31 renal,32.7 µM
same,TGI,MOLT-4 leukemia,7.63 µM
same,TGI,A498 renal,50.4 µM
same,TGI,HOP-62 NSCLC,49.2 µM
same,TGI,KM20L2 colon,38.2 µM
same,TGI,NCI/ADR-RES ovarian,42.1 µM
same,TGI,SK-MEL-5 melanoma,29.7 µM
same,TGI,DMS 114 small cell lung,31 µM
same,TGI,U251 CNS,10.2 µM
same,TGI,LXFL 529 NSCLC,8.54 µM
same,TGI,COLO 205 colon,19.3 µM
same,TGI,NCI-H522 lung,0.318 µM
same,TGI,SNB-78 CNS,49.4 µM
same,TGI,LOX IMVI melanoma,41.5 µM
same,TGI,UACC-257 melanoma,27.1 µM
same,TGI,HL-60(TB) leukemia,27.1 µM
same,TGI,M19-MEL melanoma,30.8 µM
same,TGI,SF-295 CNS,49.2 µM
same,TGI,SK-OV-3 ovarian,32.8 µM
same,TGI,T-47D breast,26.2 µM
same,TGI,ACHN renal,14.4 µM
same,TGI,HCT-15 colon,6.61 µM
same,TGI,DU-145 prostate,32.6 µM
same,TGI,TK-10 renal,30.5 µM
same,TGI,SF-539 CNS,29.9 µM
same,TGI,MDA-N,12.4 µM
same,TGI,HCT-116 colon,18.9 µM
same,TGI,NCI-H226 lung,43.3 µM
same,TGI,M14 melanoma,17.9 µM
same,TGI,DMS 273 small cell lung,15.1 µM
same,TGI,OVCAR-4 ovarian,9.67 µM
same,TGI,HS 578T breast,35.4 µM
same,TGI,HOP-92 NSCLC,15.9 µM
same,TGI,MDA-MB-231 breast,15.8 µM
same,TGI,SF-268 CNS,47.4 µM
same,TGI,MALME-3M melanoma,3.68 µM
same,TGI,786-0 renal,19.2 µM
same,TGI,SK-MEL-2 melanoma,31.2 µM
same,TGI,MDA-MB-435,11 µM
same,TGI,XF 498 CNS,5.56 µM
same,TGI,HT29 colon,15.2 µM
same,TGI,HCC-2998 colon,28.8 µM
same,TGI,PC-3 prostate,29.1 µM
same,TGI,IGROV1 ovarian,28.7 µM
same,TGI,UACC-62 melanoma,12 µM
same,TGI,OVCAR-8 ovarian,33.5 µM
same,TGI,K-562 leukemia,21.9 µM
same,TGI,SNB-75 CNS,30.7 µM
same,TGI,EKVX NSCLC,18.2 µM
same,TGI,SNB-19 CNS,28.9 µM
same,TGI,KM12 colon,24.8 µM
same,TGI,NCI-H23 lung,29.2 µM
same,TGI,DLD-1 colon,17 µM
same,TGI,SR leukemia,9.23 µM
same,TGI,SK-MEL-28 melanoma,16.9 µM
same,TGI,OVCAR-3 ovarian,11.8 µM
same,TGI,NCI-H460 lung,36.7 µM
same,TGI,BT-549 breast,29.3 µM
same,TGI,MCF7 breast,5.62 µM
same,TGI,RPMI-8226 leukemia,18.4 µM
same,TGI,SW-620 colon,3.34 µM
Cn1cccc(C(=O)c2ccccc2)c1=O,TGI,CAKI-1 renal,> 100 µM
same,TGI,A549 NSCLC,> 100 µM
same,TGI,SN12C renal,> 100 µM
same,TGI,RXF 393 renal,> 100 µM
same,TGI,CCRF-CEM leukemia,> 100 µM
same,TGI,OVCAR-5 ovarian,> 100 µM
same,TGI,UO-31 renal,> 100 µM
same,TGI,MOLT-4 leukemia,> 100 µM
same,TGI,HOP-62 NSCLC,> 100 µM
same,TGI,KM20L2 colon,> 100 µM
same,TGI,SK-MEL-5 melanoma,> 100 µM
same,TGI,DMS 114 small cell lung,> 100 µM
same,TGI,U251 CNS,> 100 µM
same,TGI,LXFL 529 NSCLC,> 100 µM
same,TGI,COLO 205 colon,> 100 µM
same,TGI,NCI-H522 lung,> 100 µM
same,TGI,SNB-78 CNS,> 100 µM
same,TGI,LOX IMVI melanoma,> 100 µM
same,TGI,UACC-257 melanoma,> 100 µM
same,TGI,HL-60(TB) leukemia,> 100 µM
same,TGI,M19-MEL melanoma,> 100 µM
same,TGI,SF-295 CNS,> 100 µM
same,TGI,SK-OV-3 ovarian,> 100 µM
same,TGI,ACHN renal,> 100 µM
same,TGI,HCT-15 colon,> 100 µM
same,TGI,TK-10 renal,> 100 µM
same,TGI,SF-539 CNS,> 100 µM
same,TGI,HCT-116 colon,> 100 µM
same,TGI,NCI-H226 lung,> 100 µM
same,TGI,M14 melanoma,> 100 µM
same,TGI,DMS 273 small cell lung,> 100 µM
same,TGI,OVCAR-4 ovarian,> 100 µM
same,TGI,HOP-92 NSCLC,> 100 µM
same,TGI,SF-268 CNS,> 100 µM
same,TGI,MALME-3M melanoma,> 100 µM
same,TGI,786-0 renal,> 100 µM
same,TGI,SK-MEL-2 melanoma,> 100 µM
same,TGI,XF 498 CNS,> 100 µM
same,TGI,HT29 colon,> 100 µM
same,TGI,HCC-2998 colon,> 100 µM
same,TGI,IGROV1 ovarian,> 100 µM
same,TGI,UACC-62 melanoma,> 100 µM
same,TGI,OVCAR-8 ovarian,> 100 µM
same,TGI,K-562 leukemia,> 100 µM
same,TGI,SNB-75 CNS,> 100 µM
same,TGI,EKVX NSCLC,> 100 µM
same,TGI,SNB-19 CNS,> 100 µM
same,TGI,KM12 colon,> 100 µM
same,TGI,NCI-H23 lung,> 100 µM
same,TGI,DLD-1 colon,> 100 µM
same,TGI,SR leukemia,> 100 µM
same,TGI,SK-MEL-28 melanoma,> 100 µM
same,TGI,OVCAR-3 ovarian,> 100 µM
same,TGI,NCI-H460 lung,> 100 µM
same,TGI,RPMI-8226 leukemia,> 100 µM
same,TGI,SW-620 colon,> 100 µM
